Tested on: T1, naringinase
T1 construct: gene naringinase alpha-L-rhamnosidase activity
Experiment: initial rates of naringin hydrolysis, Davis or DNS method, Lineweaver-Burk
Assay type: biochemical, Penicillium decumbens
Conditions: free enzyme; 0.1 M acetate buffer pH 4.0, 50 °C; naringin 0.5-20 mM; commercial enzyme complex
Text: initial rates of naringin hydrolysis, Davis or DNS method, Lineweaver-Burk on naringinase

- Km: 2560 µM
Structure (SMILES): C[C@@H]1O[C@@H](O[C@H]2[C@H](Oc3cc(O)c4c(c3)O[C@H](c3ccc(O)cc3)CC4=O)O[C@H](CO)[C@@H](O)[C@@H]2O)[C@H](O)[C@H](O)[C@H]1O [naringin]

— publication PMC6930494, “Immobilization of Naringinase from Penicillium decumbens on Chitosan Microspheres for Debittering Grapefruit Juice” (Molecules, 2019)
